Measurements from ChEMBL document CHEMBL3351786, “Drug discovery targeting cell division proteins, microtubules and FtsZ” (Bioorg Med Chem, 2014).

Columns and labels:
Format in all cases: functional
HeLa = experiment: Mitotic arrest in human HeLa cells assessed as apoptosis at 5 nM after 24 hrs by TUNEL assay
A2780 [1] = experiment: Resistance factor, ratio of IC50 for paclitaxel-resistant human 1A9PTX10 cells to ratio of IC50 for human A2780 cells
A2780 [2] = experiment: Resistance factor, ratio of IC50 for paclitaxel-resistant human 1A9PTX22 cells to ratio of IC50 for human A2780 cells

Row | Compound | Activity (HeLa) [%] | Ratio IC50 (A2780 [1]) | Ratio IC50 (A2780 [2])
1 | CCC(=O)O[C@H]1C(=O)[C@@]2(C)[C@H]([C@H](OC(=O)c3ccccc3)[C@]3(O)C[C@H](OC(=O)[C@H](O)[C@H](C=C(C)C)NC(=O)OC(C)(C)C)C(C)=C1C3(C)C)[C@]1(OC(C)=O)CO[C@@H]1C[C@@H]2O | 70 | – | –
2 | CCC(=O)O[C@H]1C(=O)[C@@]2(C)[C@H]([C@H](OC(=O)c3cccc(OC)c3)[C@]3(O)C[C@H](OC(=O)[C@H](O)[C@H](C=C(C)C)NC(=O)OC(C)(C)C)C(C)=C1C3(C)C)[C@]1(OC(C)=O)CO[C@@H]1C[C@@H]2O | – | 4.8 | 5.1
